{
  "source": "patent US20190282476A1",
  "about": "“Cleansing Composition” (Colgate-Palmolive Company, priority 2015, published 2019)",
  "tested_on": "typical microorganisms encountered in personal care compositions",
  "text": "The cleansing compositions, e.g. any of Composition 1 or 1.1 to 1.27, include as preservatives, phenoxyethanol, sodium salicylate and a chelating agent (e.g., a salt of ethylenediaminetetraacetic acid). […] It is well known that preservative agents have established minimum inhibitory concentrations, and below such concentrations preservative agents are not effective in preventing microbial growth.",
  "data": [
    {"molecule": "O=C([O-])c1ccccc1O.[Na+]", "note": "[sodium salicylate]", "values": [
      {"measurement": "MIC", "value": "about 0.019 % by weight"}
    ]}
  ]
}
